Test results taken from US10059717B2, “Urea compounds containing 3,4-dihydropyrimido[4,5-D]pyrimidin-2(1H)-one skeleton as protein kinase inhibitors” (KOREA INSTITUTE OF SCIENCE AND TECHNOLOGY, priority 2016, dated 2018).

Assays:
[1] = target: ACK1 (Homo sapiens, UniProt Q07912); assay: ACK1 kinase inhibitory activity; assay type: biochemical; details: read-out: Kinase inhibitory efficacy, GI50 ACK1
Procedure: (§1) GI50 values were calculated by measuring the inhibitory efficacy of the compounds of the present invention against both GCK and ACK1 kinases.

[2] = system: OCI-AML3 (N-Ras Q61L); assay: Proliferation inhibitory activity, OCI-AML3; assay type: cell-based; details: Homo sapiens, OCI-AML-3; OCI-AML3 (N-Ras Q61L) cell line; read-out: Proliferation inhibitory efficacy (GI50, μM) OCI-AML3 (N-Ras Q61L)
Procedure: (§2) GI50 values were calculated by measuring the proliferation inhibitory efficacy of the compounds of the present invention on mt-NRAS (G12D) Ba/F3, U937 (wt-NRAS) and OCI-AML3 (mt-NRAS) cell lines.
Accordingly, the compounds of the present invention are particularly effective as a therapeutic agent for acute myelogenous leukemia (AML).

[3] = system: U937 (N-Ras WT); assay: Proliferation inhibitory activity, U937; assay type: cell-based; details: Homo sapiens, U-937; U937 (N-Ras WT) cell line; read-out: Proliferation inhibitory efficacy (GI50, μM) U937 (N-Ras WT)
Procedure: as §2

[4] = system: Ba/F3 (N-Ras G12D); assay: Proliferation inhibitory activity, Ba/F3; assay type: cell-based; details: Mus musculus, BaF3; Ba/F3 (N-Ras G12D) cell line; read-out: Proliferation inhibitory efficacy (GI50, μM) Ba/F3 (N-Ras G12D)
Procedure: as §2

[5] = target: T1, GCK (Homo sapiens, UniProt Q12851); assay: GCK kinase inhibitory activity; assay type: biochemical; details: read-out: Kinase inhibitory efficacy, GI50 GCK
T1 sequence (Q12851 1-820): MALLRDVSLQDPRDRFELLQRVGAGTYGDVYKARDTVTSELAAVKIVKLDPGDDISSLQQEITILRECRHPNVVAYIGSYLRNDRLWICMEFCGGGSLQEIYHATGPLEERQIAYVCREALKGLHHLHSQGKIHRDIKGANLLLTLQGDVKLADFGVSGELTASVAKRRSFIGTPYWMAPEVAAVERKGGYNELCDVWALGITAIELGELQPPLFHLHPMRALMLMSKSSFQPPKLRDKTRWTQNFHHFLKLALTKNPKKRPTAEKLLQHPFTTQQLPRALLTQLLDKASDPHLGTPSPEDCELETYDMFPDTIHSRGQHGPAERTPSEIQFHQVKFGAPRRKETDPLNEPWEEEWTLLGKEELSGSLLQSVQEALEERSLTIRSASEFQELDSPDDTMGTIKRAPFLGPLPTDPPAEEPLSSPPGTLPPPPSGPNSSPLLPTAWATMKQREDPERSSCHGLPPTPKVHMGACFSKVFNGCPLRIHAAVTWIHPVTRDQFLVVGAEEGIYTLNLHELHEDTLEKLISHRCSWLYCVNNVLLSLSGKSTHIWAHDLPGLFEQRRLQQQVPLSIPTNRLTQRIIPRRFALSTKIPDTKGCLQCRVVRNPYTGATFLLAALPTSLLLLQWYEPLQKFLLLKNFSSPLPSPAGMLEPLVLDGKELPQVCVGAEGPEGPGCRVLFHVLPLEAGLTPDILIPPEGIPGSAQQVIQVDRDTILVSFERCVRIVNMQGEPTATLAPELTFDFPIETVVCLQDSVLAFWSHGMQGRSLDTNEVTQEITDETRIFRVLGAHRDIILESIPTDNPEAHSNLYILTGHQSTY
Procedure: as §1

ACK1, sequence (Q07912 whole entry): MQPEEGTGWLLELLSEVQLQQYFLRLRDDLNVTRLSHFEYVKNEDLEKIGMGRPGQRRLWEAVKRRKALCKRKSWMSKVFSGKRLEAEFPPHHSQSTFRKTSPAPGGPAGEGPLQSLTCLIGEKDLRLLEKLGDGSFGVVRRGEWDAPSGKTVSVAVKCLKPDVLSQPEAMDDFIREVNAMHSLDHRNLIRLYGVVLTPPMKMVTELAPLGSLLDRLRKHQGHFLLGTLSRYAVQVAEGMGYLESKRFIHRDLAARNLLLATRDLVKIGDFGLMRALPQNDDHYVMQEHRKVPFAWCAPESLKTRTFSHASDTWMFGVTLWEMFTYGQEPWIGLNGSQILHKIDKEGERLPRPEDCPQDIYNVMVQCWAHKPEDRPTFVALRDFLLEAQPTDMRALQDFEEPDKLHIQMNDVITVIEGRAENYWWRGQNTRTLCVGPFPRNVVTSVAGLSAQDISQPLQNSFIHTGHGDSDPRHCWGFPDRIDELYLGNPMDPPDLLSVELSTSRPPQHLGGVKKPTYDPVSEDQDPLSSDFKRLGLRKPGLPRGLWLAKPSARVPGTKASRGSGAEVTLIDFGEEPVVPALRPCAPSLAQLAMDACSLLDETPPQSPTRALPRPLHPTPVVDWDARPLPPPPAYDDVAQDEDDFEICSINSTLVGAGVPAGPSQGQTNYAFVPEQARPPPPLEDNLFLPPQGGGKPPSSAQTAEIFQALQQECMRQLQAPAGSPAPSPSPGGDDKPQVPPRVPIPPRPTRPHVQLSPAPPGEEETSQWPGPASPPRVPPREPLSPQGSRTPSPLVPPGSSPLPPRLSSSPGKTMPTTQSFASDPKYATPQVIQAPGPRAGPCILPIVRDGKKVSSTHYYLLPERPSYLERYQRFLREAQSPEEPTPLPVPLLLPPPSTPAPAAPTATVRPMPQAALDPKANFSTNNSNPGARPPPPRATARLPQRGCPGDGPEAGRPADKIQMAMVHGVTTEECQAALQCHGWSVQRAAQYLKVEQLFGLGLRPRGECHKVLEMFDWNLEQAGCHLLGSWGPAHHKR

GI50 [1] [nM]	GI50 [2] [µM]	GI50 [3] [µM]	GI50 [4] [µM]	GI50 [5] [nM]	Structure (SMILES)
< 30	< 0.5	≥ 5	< 0.5	100 to 300	COc1ccccc1NC(=O)Nc1ccc(C)c(N2Cc3cnc(Nc4ccc(C(=O)NC5CC5)nc4)nc3N(C)C2=O)c1 [Compound No. 16, N-cyclopropyl-5-((6-(5-(3-(2-methoxyphenyl)ureido)-2-methylphenyl)-8-methyl-7-oxo-5,6,7,8-tetrahydropyrimido[4,5-d]pyrimidin-2-yl)amino)picolinamide]
< 30	< 0.5	0.5 to 3	< 0.5	< 30	CCN1CCN(c2ccc(Nc3ncc4c(n3)N(C)C(=O)N(c3cc(NC(=O)Nc5ccccc5OC)ccc3C)C4)cn2)CC1 [Compound No. 17, 1-(3-(7-((6-(4-ethylpiperazin-1-yl)pyridin-3-yl)amino)-1-methyl-2-oxo-1,4-dihydropyrimido[4,5-d]pyrimidin-3(2H)-yl)-4-methylphenyl)-3-(2-methoxyphenyl)urea]
< 30	< 0.5	≥ 5	< 0.5	30 to 100	COc1ccccc1NC(=O)Nc1ccc(C)c(N2Cc3cnc(Nc4ccc(C)nc4)nc3N(C)C2=O)c1 [Compound No. 1, 1-(2-methoxyphenyl)-3-(4-methyl-3-(1-methyl-7-((6-methylpyridin-3-yl)amino)-2-oxo-1,4-dihydropyrimido[4,5-d]pyrimidin-3(2H)-yl)phenyl)urea]
< 30	0.5 to 3	≥ 5	3 to 5	≥ 300	Cc1ccc(Nc2ncc3c(n2)N(C)C(=O)N(c2cc(NC(=O)Nc4ccccc4OC(F)(F)F)ccc2C)C3)cn1 [Compound No. 3, 1-(4-methyl-3-(1-methyl-7-((6-methylpyridin-3-yl)amino)-2-oxo-1,4-dihydropyrimido[4,5-d]pyrimidin-3(2H)-yl)phenyl)-3-(2-(trifluoromethoxy)phenyl)urea]
< 30	0.5 to 3	≥ 5	< 0.5	100 to 300	Cc1ccc(Nc2ncc3c(n2)N(C)C(=O)N(c2cc(NC(=O)Nc4cccc(C(F)(F)F)c4)ccc2C)C3)cn1 [Compound No. 7, 1-(4-methyl-3-(1-methyl-7-((6-methylpyridin-3-yl)amino)-2-oxo-1,4-dihydropyrimido[4,5-d]pyrimidin-3(2H)-yl)phenyl)-3-(3-(trifluoromethyl)phenyl)urea]
< 30	0.5 to 3	≥ 5	0.5 to 3	100 to 300	Cc1ccc(Nc2ncc3c(n2)N(C)C(=O)N(c2cc(NC(=O)Nc4ccccc4)ccc2C)C3)cn1 [Compound No. 2, 1-(4-methyl-3-(1-methyl-7-((6-methylpyridin-3-yl)amino)-2-oxo-1,4-dihydropyrimido[4,5-d]pyrimidin-3(2H)-yl)phenyl)-3-phenylurea]
< 30	0.5 to 3	≥ 5	0.5 to 3	100 to 300	Cc1ccc(Nc2ncc3c(n2)N(C)C(=O)N(c2cc(NC(=O)Nc4ccccc4C)ccc2C)C3)cn1 [Compound No. 5, 1-(4-methyl-3-(1-methyl-7-((6-methylpyridin-3-yl)amino)-2-oxo-1,4-dihydropyrimido[4,5-d]pyrimidin-3(2H)-yl)phenyl)-3-(o-tolyl)urea]
< 30	< 0.5	≥ 5	< 0.5	< 30	COc1ccccc1NC(=O)Nc1ccc(C)c(N2Cc3cnc(Nc4ccc(N5CCN(C(C)=O)CC5)nc4)nc3N(C)C2=O)c1 [Compound No. 13, 1-(3-(7-((6-(4-acetylpiperazin-1-yl)pyridin-3-yl)amino)-1-methyl-2-oxo-1,4-dihydropyrimido[4,5-d]pyrimidin-3(2H)-yl)-4-methylphenyl)-3-(2-methoxyphenyl)urea]
< 30	< 0.5	≥ 5	< 0.5	100 to 300	CNC(=O)c1ccc(Nc2ncc3c(n2)N(C)C(=O)N(c2cc(NC(=O)Nc4ccccc4OC)ccc2C)C3)cn1 [Compound No. 15]
< 30	< 0.5	0.5 to 3	< 0.5	< 30	CCN1CCN(c2ccc(Nc3ncc4c(n3)N(C)C(=O)N(c3cc(NC(=O)Nc5ccccc5OC)ccc3C)C4)cc2)CC1 [Compound No. 11, 1-(3-(7-((4-(4-ethylpiperazin-1-yl)phenyl)amino)-1-methyl-2-oxo-1,4-dihydropyrimido[4,5-d]pyrimidin-3(2H)-yl)-4-methylphenyl)-3-(2-methoxyphenyl)urea]
30 to 100	< 0.5	≥ 5	0.5 to 3	100 to 300	Cc1ccc(Nc2ncc3c(n2)N(C)C(=O)N(c2cc(NC(=O)Nc4ccc(Cl)c(C(F)(F)F)c4)ccc2C)C3)cn1 [Compound No. 9, 1-(4-chloro-3-(trifluoromethyl)phenyl)-3-(4-methyl-3-(1-methyl-7-((6-methylpyridin-3-yl)amino)-2-oxo-1,4-dihydropyrimido[4,5-d]pyrimidin-3(2H)-yl)phenyl)urea]
< 30	0.5 to 3	≥ 5	< 0.5	30 to 100	COc1cccc(NC(=O)Nc2ccc(C)c(N3Cc4cnc(Nc5ccc(C)nc5)nc4N(C)C3=O)c2)c1 [Compound No. 8, 1-(3-methoxyphenyl)-3-(4-methyl-3-(1-methyl-7-((6-methylpyridin-3-yl)amino)-2-oxo-1,4-dihydropyrimido[4,5-d]pyrimidin-3(2H)-yl)phenyl)urea]
< 30	< 0.5	≥ 5	0.5 to 3	≥ 300	Cc1ccc(Nc2ncc3c(n2)N(C)C(=O)N(c2cc(NC(=O)Nc4ccccc4C(F)(F)F)ccc2C)C3)cn1 [Compound No. 4, 1-(4-methyl-3-(1-methyl-7-((6-methylpyridin-3-yl)amino)-2-oxo-1,4-dihydropyrimido[4,5-d]pyrimidin-3(2H)-yl)phenyl)-3-(2-(trifluoromethyl)phenyl)urea]
< 30	< 0.5	≥ 5	< 0.5	< 30	COc1ccccc1NC(=O)Nc1ccc(C)c(N2Cc3cnc(Nc4cnn(C)c4)nc3N(C)C2=O)c1 [Compound No. 12, 1-(2-methoxyphenyl)-3-(4-methyl-3-(1-methyl-7-((1-methy-1H-pyrazol-4-yl)amino)-2-oxo-1,4-dihydropyrimido[4,5-d]pyrimidin-3(2H)-yl)phenyl)urea]
30 to 100	< 0.5	≥ 5	< 0.5	30 to 100	COc1ccc(NC(=O)Nc2ccc(C)c(N3Cc4cnc(Nc5ccc(C)nc5)nc4N(C)C3=O)c2)cc1 [Compound No. 10, 1-(4-methoxyphenyl)-3-(4-methyl-3-(1-methyl-7-((6-methylpyridin-3-yl)amino)-2-oxo-1,4-dihydropyrimido[4,5-d]pyrimidin-3(2H)-yl)phenyl)urea]
< 30	< 0.5	≥ 5	0.5 to 3	100 to 300	Cc1ccc(Nc2ncc3c(n2)N(C)C(=O)N(c2cc(NC(=O)Nc4cccc(Cl)c4Cl)ccc2C)C3)cn1 [Compound No. 6, 1-(2,3-dichlorophenyl)-3-(4-methyl-3-(1-methyl-7-((6-methylpyridin-3-yl)amino)-2-oxo-1,4-dihydropyrimido[4,5-d]pyrimidin-3(2H)-yl)phenyl)urea]
30 to 100	< 0.5	≥ 5	< 0.5	< 30	COc1ccccc1NC(=O)Nc1ccc(C)c(N2Cc3cnc(Nc4ccc(N5CCC(C(N)=O)CC5)nc4)nc3N(C)C2=O)c1 [Compound No. 18, 1-(5-((6-(5-(3-(2-methoxyphenyl)ureido)-2-methylphenyl)-8-methyl-7-oxo-5,6,7,8-tetrahydropyrimido[4,5-d]pyrimidin-2-yl)amino)pyridin-2-yl)piperidin-4-carboxamide]
